The values that follow come from ChEMBL document CHEMBL1130477, “Synthesis and structure-activity relationships of some novel oxetane carbapenems” (1997).

In brackets after ≈: the same amount, converted by molar mass. Bounds are passed on as bounds.

The test system of assay [1] is Acinetobacter calcoaceticus. Description: In vitro antibacterial activity against Acinetobacter calcoaceticus aceticus strain GC 756, expressed as MIC(minimum inhibitory concentration). Format: functional.
Another assay concerns Citrobacter freundii. Description: In vitro antibacterial activity against Citrobacter freundii strain GC 2211, expressed as MIC(minimum inhibitory concentration). Format: functional.
The target in assay [2] is T1, Dipeptidase 1 (Sus scrofa) (UniProt P22412).
T1 sequence (whole entry): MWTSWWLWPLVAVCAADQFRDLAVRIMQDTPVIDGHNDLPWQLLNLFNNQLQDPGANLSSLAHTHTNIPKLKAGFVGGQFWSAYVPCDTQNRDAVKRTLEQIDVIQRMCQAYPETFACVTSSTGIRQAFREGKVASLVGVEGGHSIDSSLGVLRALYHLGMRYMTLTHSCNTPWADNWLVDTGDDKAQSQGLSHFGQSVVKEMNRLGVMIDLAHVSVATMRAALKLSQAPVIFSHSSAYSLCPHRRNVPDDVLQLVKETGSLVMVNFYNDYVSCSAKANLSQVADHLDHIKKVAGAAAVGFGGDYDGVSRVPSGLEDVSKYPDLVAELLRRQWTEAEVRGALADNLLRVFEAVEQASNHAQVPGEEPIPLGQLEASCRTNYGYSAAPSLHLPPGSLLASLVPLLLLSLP
The experiment in a line: (§1) Stability towards hog kidney dehydropeptidase (DHP) expressed as relative hydrolysis to imipenem. The assay is classed as functional, tissue-based.

A further assay has as its system Enterococcus faecalis. Description: In vitro antibacterial activity against Enterococcus faecalis strain GC 842, expressed as MIC(minimum inhibitory concentration). The assay is classed as functional.
The subject of the next assay is Enterobacter cloacae. Description: In vitro antibacterial activity against Enterobacter cloacae strain GC 2209, expressed as MIC(minimum inhibitory concentration). The assay is classed as functional.
Assay [3] relates to Escherichia coli. The experiment in a line: In vitro antibacterial activity against Escherichia coli strain ATCC 25922, expressed as MIC(minimum inhibitory concentration). Format: functional.
The test system of assay [4] is Escherichia coli. The experiment in a line: In vitro antibacterial activity against Escherichia coli strain GC 1792, expressed as MIC(minimum inhibitory concentration). The assay is classed as functional.
Assay [5] concerns Escherichia coli. The experiment in a line: In vitro antibacterial activity against Escherichia coli strain GC 2205, expressed as MIC(minimum inhibitory concentration). The assay is classed as functional.
Another assay concerns Morganella morganii. Description: In vitro antibacterial activity against Morganella morganii strain GC 2213, expressed as MIC(minimum inhibitory concentration). Format: functional.
The subject of assay [6] is Pseudomonas aeruginosa. The experiment in a line: In vitro antibacterial activity against Pseudomonas aeruginosa strain ATCC 27853, expressed as MIC(minimum inhibitory concentration). The assay is classed as functional.
Assay [7] concerns Pseudomonas aeruginosa. Description: In vitro antibacterial activity against Pseudomonas aeruginosa strain GC 1544, expressed as MIC(minimum inhibitory concentration). Format: functional.
Assay [8] concerns Staphylococcus aureus. Description: In vitro antibacterial activity against Staphylococcus aureus strain ATCC 29213, expressed as MIC(minimum inhibitory concentration). The assay is classed as functional.
The subject of assay [9] is Staphylococcus aureus. The experiment in a line: In vitro antibacterial activity against Staphylococcus aureus strain GC 2220, expressed as MIC(minimum inhibitory concentration). Format: functional.
Assay [10] deals with Stenotrophomonas maltophilia. Description: In vitro antibacterial activity against Xanthomonas maltophilia strain GC 562, expressed as MIC(minimum inhibitory concentration). The assay is classed as functional.
The next assay relates to Enterococcus faecium. The experiment in a line: In vitro antibacterial activity against Enterococcus faecium strain GC 1182, expressed as MIC(minimum inhibitory concentration). The assay is classed as functional.
The target in assay [11] is T1, Dipeptidase 1 (Sus scrofa). The description is as §1.

Usually MIC stands for the least concentration at which growth counts as inhibited. As to `CC1C(S[C@@H]2CCO[C@@H]2CN)=C(C(=O)O)N2C(=O)[C@H]([C@@H](C)O)[C@@H]12` (single isomer, unassigned), the MIC was 2 µg/mL (≈ 5.84 µM) in [1]; 0.12 µg/mL (≈ 0.35 µM) in the assay on Citrobacter freundii; 1 µg/mL (≈ 2.92 µM) with Enterococcus faecalis; under 0.06 µg/mL against Enterobacter cloacae; at most 0.06 µg/mL in the assay with Escherichia coli [3]; at most 0.06 µg/mL with Escherichia coli [4]. The MIC in the assay with Escherichia coli [5] was at most 0.06 µg/mL; against Morganella morganii it was 0.5 µg/mL (≈ 1.46 µM); against Pseudomonas aeruginosa [6], 4 µg/mL (≈ 11.7 µM); against Pseudomonas aeruginosa [7], 16 µg/mL (≈ 46.7 µM); in the assay on Staphylococcus aureus [8], at most 0.06 µg/mL; in the assay on Staphylococcus aureus [9] it was 2 µg/mL (≈ 5.84 µM). Moreover, the results for the MIC (in assay [10]; with Enterococcus faecium) were over 128 µg/mL and 64 µg/mL (≈ 187 µM), respectively. For the same compound, in assay [2], the Relative hydrolysis was found to be 8.5.
With `C[C@@H](O)[C@H]1C(=O)N2C(C(=O)O)=C(SCCNC=N)C[C@H]12` [IMIPENEM ANHYDROUS], the minimum inhibitory concentration (MIC) is 0.5 µg/mL (≈ 1.67 µM) in assay [1]; 0.5 µg/mL (≈ 1.67 µM) in the assay on Citrobacter freundii; 1 µg/mL (≈ 3.34 µM) against Enterococcus faecalis; at most 0.06 µg/mL against Enterobacter cloacae; 0.12 µg/mL (≈ 0.401 µM) in the assay with Escherichia coli [3]; 0.12 µg/mL (≈ 0.401 µM) against Escherichia coli [4]. The MIC in the assay with Escherichia coli [5] was 0.12 µg/mL (≈ 0.401 µM); in the assay on Morganella morganii it was 2 µg/mL (≈ 6.68 µM); against Pseudomonas aeruginosa [6], 2 µg/mL (≈ 6.68 µM); against Pseudomonas aeruginosa [7], 16 µg/mL (≈ 53.4 µM); against Staphylococcus aureus [8] it was at most 0.06 µg/mL; against Staphylococcus aureus [9] it was 1 µg/mL (≈ 3.34 µM). In addition, the MIC in assay [10] is over 128 µg/mL; against Enterococcus faecium, 128 µg/mL (≈ 428 µM). Moreover, the Relative hydrolysis in assay [11] worked out at 100.
Take `C[C@H]1C(S[C@H]2[C@@H](CN)O[C@@H]2CO)=C(C(=O)O)N2C(=O)[C@H]([C@@H](C)O)C12` (some centres not stated): the MIC in assay [1] was 4 µg/mL (≈ 11.2 µM); against Citrobacter freundii, 1 µg/mL (≈ 2.79 µM); against Enterococcus faecalis it was 4 µg/mL (≈ 11.2 µM); in the assay with Enterobacter cloacae, 0.25 µg/mL (≈ 0.698 µM); against Escherichia coli [3] it was 0.12 µg/mL (≈ 0.335 µM); with Escherichia coli [4] it was 0.25 µg/mL (≈ 0.698 µM). The MIC with Escherichia coli [5] worked out at 0.25 µg/mL (≈ 0.698 µM); with Morganella morganii, 2 µg/mL (≈ 5.58 µM); against Pseudomonas aeruginosa [6], 16 µg/mL (≈ 44.6 µM); in the assay with Pseudomonas aeruginosa [7], 32 µg/mL (≈ 89.3 µM); with Staphylococcus aureus [8], 0.12 µg/mL (≈ 0.335 µM); against Staphylococcus aureus [9], 8 µg/mL (≈ 22.3 µM). The MIC (in assay [10]; against Enterococcus faecium) was over 128 µg/mL in each case.
`COC(=O)[C@H]1O[C@H](CO)[C@H]1SC1=C(C(=O)[O-])N2C(=O)[C@H]([C@@H](C)O)[C@H]2[C@H]1C.[Na+]`: the MIC was 32 µg/mL in assay [1]; 16 µg/mL against Citrobacter freundii; 16 µg/mL against Enterococcus faecalis; 4 µg/mL against Enterobacter cloacae; 0.5 µg/mL in the assay with Escherichia coli [3]; 1 µg/mL in the assay on Escherichia coli [4]. The MIC against Escherichia coli [5] is 0.25 µg/mL; in the assay on Morganella morganii it was 4 µg/mL; with Pseudomonas aeruginosa [6], over 128 µg/mL; in the assay with Pseudomonas aeruginosa [7] it was over 128 µg/mL; in the assay on Staphylococcus aureus [8], 2 µg/mL; in the assay with Staphylococcus aureus [9] it was 32 µg/mL. The minimum inhibitory concentration (MIC) (in [10]; in the assay with Enterococcus faecium) was over 128 µg/mL each time. For the same compound, the Relative hydrolysis in [11] is under 1.
For `COC(=O)[C@H]1O[C@H](COS(=O)(=O)c2ccc(C)cc2)[C@H]1SC1=C(C(=O)[O-])N2C(=O)[C@H]([C@@H](C)O)[C@H]2[C@H]1C.[Na+]`, the MIC in [1] is over 128 µg/mL; against Citrobacter freundii it was over 128 µg/mL; against Enterococcus faecalis, 64 µg/mL; in the assay with Enterobacter cloacae it was over 128 µg/mL; in the assay with Escherichia coli [3] it was over 128 µg/mL; in the assay with Escherichia coli [4] it was over 128 µg/mL. The MIC against Escherichia coli [5] is 2 µg/mL; in the assay with Morganella morganii, over 128 µg/mL; in the assay with Pseudomonas aeruginosa [6] it was over 128 µg/mL; in the assay on Pseudomonas aeruginosa [7], over 128 µg/mL; with Staphylococcus aureus [8], 4 µg/mL; against Staphylococcus aureus [9], 64 µg/mL. Moreover, the minimal inhibitory concentration (MIC) (in assay [10]; against Enterococcus faecium) was over 128 µg/mL in each case. In assay [11], this compound displayed a Relative hydrolysis of under 1.
For the compound `C[C@@H](O)[C@H]1C(=O)N2C(C(=O)[O-])=C(S[C@H]3[C@@H](C(=O)N(C)C)O[C@@H]3CO)[C@H](C)[C@H]12.[Na+]`, the MIC in assay [1] was 32 µg/mL; in the assay on Citrobacter freundii, 8 µg/mL; against Enterococcus faecalis, 32 µg/mL; against Enterobacter cloacae, 2 µg/mL; with Escherichia coli [3], 0.5 µg/mL; with Escherichia coli [4], 1 µg/mL. Moreover, the MIC against Escherichia coli [5] was 0.5 µg/mL; with Morganella morganii, 4 µg/mL; with Pseudomonas aeruginosa [6] it was over 64 µg/mL; against Pseudomonas aeruginosa [7] it was over 64 µg/mL; against Staphylococcus aureus [8] it was 4 µg/mL; in the assay on Staphylococcus aureus [9] it was over 64 µg/mL. The minimum inhibitory concentration (MIC) (in assay [10]; in the assay with Enterococcus faecium) was over 64 µg/mL in each case.
As for `C[C@H]1C(S[C@@H]2[C@@H](C)O[C@@H]2CN)=C(C(=O)[O-])N2C(=O)[C@H]([C@@H](C)O)C12.[Na+]` (some centres not stated), the MIC in assay [1] was 16 µg/mL; in the assay with Citrobacter freundii, 1 µg/mL; in the assay on Enterococcus faecalis, 4 µg/mL; against Enterobacter cloacae, 0.5 µg/mL; against Escherichia coli [3] it was 0.12 µg/mL; with Escherichia coli [4], 0.12 µg/mL. For the same compound, the MIC is 0.25 µg/mL in the assay on Escherichia coli [5]; 4 µg/mL against Morganella morganii; 64 µg/mL against Pseudomonas aeruginosa [6]; 128 µg/mL with Pseudomonas aeruginosa [7]; 0.12 µg/mL in the assay with Staphylococcus aureus [8]; 8 µg/mL in the assay on Staphylococcus aureus [9]. Moreover, the MIC (in assay [10]; in the assay with Enterococcus faecium) was over 128 µg/mL each time.
Consider `COC(=O)[C@H]1O[C@H](CN)[C@H]1SC1=C(C(=O)O)N2C(=O)[C@H]([C@@H](C)O)[C@H]2[C@H]1C`, for which the MIC was 16 µg/mL (≈ 41.4 µM) in [1]; 1 µg/mL (≈ 2.59 µM) against Citrobacter freundii; 32 µg/mL (≈ 82.8 µM) against Enterococcus faecalis; 0.25 µg/mL (≈ 0.647 µM) against Enterobacter cloacae; 0.25 µg/mL (≈ 0.647 µM) in the assay on Escherichia coli [3]; 0.5 µg/mL (≈ 1.29 µM) in the assay with Escherichia coli [4]. For the same compound, the MIC in the assay with Escherichia coli [5] was 0.5 µg/mL (≈ 1.29 µM); in the assay with Morganella morganii it was 16 µg/mL (≈ 41.4 µM); in the assay on Pseudomonas aeruginosa [6] it was 128 µg/mL (≈ 331 µM); against Pseudomonas aeruginosa [7], over 128 µg/mL; with Staphylococcus aureus [8], 1 µg/mL (≈ 2.59 µM); against Staphylococcus aureus [9] it was 32 µg/mL (≈ 82.8 µM). The minimal inhibitory concentration (MIC) (in [10]; in the assay with Enterococcus faecium) was over 128 µg/mL each time. The compound also displayed a Relative hydrolysis in assay [11] of under 1.
